According to ChEMBL document CHEMBL1201862, “PubChem BioAssay data set” (2004):
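Interpolation was linear, between the two tested concentrations surrounding the appropriate level; five concentrations were tested over 48 hours in 96-well plates. Here, GI50 denotes the concentration required for 50% inhibition of growth.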 The source made the active and inactive calls. No stated cut-off is given here; in the data, active = GI50 up to about 1.1 µM and inactive = higher.

Assays:
Assay in all cases: NCI anticancer screen, dose series, 48 h
NCI-H522 = test system: NCI-H522
UACC-257 = test system: UACC-257
SW-620 = test system: SW-620
UACC-62 = test system: UACC-62
CAKI-1 = test system: CAKI-1
NCI-H460 = test system: NCI-H460
SNB-75 = test system: SNB-75
PC-3 = test system: PC-3
KM12 = test system: KM12
HCC 2998 = test system: HCC 2998
SF-295 = test system: SF-295
A549 = test system: A549
786-0 = test system: 786-0
OVCAR-4 = test system: OVCAR-4
COLO 205 = test system: COLO 205
HCT-15 = test system: HCT-15
SK-MEL-28 = test system: SK-MEL-28
MDA-N = test system: MDA-N
A498 = test system: A498
LOX IMVI = test system: LOX IMVI
SN12C = test system: SN12C
SK-MEL-2 = test system: SK-MEL-2
HL-60 = test system: HL-60
HT-29 = test system: HT-29
MOLT-4 = test system: MOLT-4
T47D = test system: T47D
MDA-MB-231 = test system: MDA-MB-231
BT-549 = test system: BT-549
K562 = test system: K562
RXF 393 = test system: RXF 393
RPMI-8226 = test system: RPMI-8226
ACHN = test system: ACHN
HOP-62 = test system: HOP-62
OVCAR-5 = test system: OVCAR-5
MDA-MB-435 = test system: MDA-MB-435
NCI-H226 = test system: NCI-H226
HCT-116 = test system: HCT-116
U-251 = test system: U-251
TK-10 = test system: TK-10
MCF7 = test system: MCF7
NCI-H23 = test system: NCI-H23
DU-145 = test system: DU-145
SNB-19 = test system: SNB-19
OVCAR-3 = test system: OVCAR-3
EKVX = test system: EKVX
OVCAR-8 = test system: OVCAR-8
SK-OV-3 = test system: SK-OV-3
M14 = test system: M14
Malme-3M = test system: Malme-3M
IGROV-1 = test system: IGROV-1
NCI/ADR-RES = test system: NCI/ADR-RES
HOP-92 = test system: HOP-92
SK-MEL-5 = test system: SK-MEL-5
UO-31 = test system: UO-31
CCRF-CEM = test system: CCRF-CEM
SF-539 = test system: SF-539

Q: How did the GI50 (NCI-H522) turn out when `FC1CCN(C2(c3cccs3)CCCCC2)CC1` was run?
A: > 100 µM (inactive)

Q: And the GI50 (UACC-257)?
A: 60.4 µM (inactive)

Q: What about the GI50 (SW-620) of the same molecule?
A: > 100 µM (inactive)

Q: What about the GI50 (UACC-62) of the same molecule?
A: > 100 µM (inactive)

Q: What about the GI50 (CAKI-1) of the same molecule?
A: > 100 µM (inactive)

Q: And the GI50 (NCI-H460)?
A: > 100 µM (inactive)

Q: And the GI50 (SNB-75)?
A: > 100 µM (inactive)

Q: And the GI50 (PC-3)?
A: > 100 µM (inactive)

Q: What about the GI50 (KM12) of the same molecule?
A: > 100 µM (inactive)

Q: And the GI50 (HCC 2998)?
A: 27.2 µM (inactive)

Q: And the GI50 (SF-295)?
A: > 100 µM (inactive)

Q: And the GI50 (A549)?
A: > 100 µM (inactive)

Q: And the GI50 (786-0)?
A: > 100 µM (inactive)

Q: And the GI50 (OVCAR-4)?
A: > 100 µM (inactive)

Q: What about the GI50 (COLO 205) of the same molecule?
A: > 100 µM (inactive)

Q: And the GI50 (HCT-15)?
A: > 100 µM

Q: And the GI50 (SK-MEL-28)?
A: > 100 µM (inactive)

Q: What about the GI50 (MDA-N) of the same molecule?
A: > 100 µM (inactive)

Q: And the GI50 (A498)?
A: > 100 µM (inactive)

Q: And the GI50 (LOX IMVI)?
A: 96.6 µM (inactive)

Q: What about the GI50 (SN12C) of the same molecule?
A: > 100 µM (inactive)

Q: And the GI50 (SK-MEL-2)?
A: > 100 µM (inactive)

Q: What about the GI50 (HL-60) of the same molecule?
A: > 100 µM (inactive)

Q: And the GI50 (HT-29)?
A: 47.8 µM (inactive)

Q: What about the GI50 (MOLT-4) of the same molecule?
A: > 100 µM (inactive)

Q: And the GI50 (T47D)?
A: > 100 µM (inactive)

Q: And the GI50 (MDA-MB-231)?
A: > 100 µM (inactive)

Q: What about the GI50 (BT-549) of the same molecule?
A: > 100 µM (inactive)

Q: What about the GI50 (K562) of the same molecule?
A: > 100 µM (inactive)

Q: And the GI50 (RXF 393)?
A: > 100 µM (inactive)

Q: And the GI50 (RPMI-8226)?
A: 56.5 µM (inactive)

Q: What about the GI50 (ACHN) of the same molecule?
A: > 100 µM (inactive)

Q: And the GI50 (HOP-62)?
A: > 100 µM (inactive)

Q: What about the GI50 (OVCAR-5) of the same molecule?
A: > 100 µM (inactive)

Q: What about the GI50 (MDA-MB-435) of the same molecule?
A: > 100 µM (inactive)

Q: What about the GI50 (NCI-H226) of the same molecule?
A: > 100 µM (inactive)

Q: And the GI50 (HCT-116)?
A: > 100 µM (inactive)

Q: And the GI50 (U-251)?
A: > 100 µM (inactive)

Q: And the GI50 (TK-10)?
A: > 100 µM (inactive)

Q: What about the GI50 (MCF7) of the same molecule?
A: > 100 µM (inactive)

Q: And the GI50 (NCI-H23)?
A: > 100 µM (inactive)

Q: What about the GI50 (DU-145) of the same molecule?
A: > 100 µM (inactive)

Q: What about the GI50 (SNB-19) of the same molecule?
A: > 100 µM (inactive)

Q: And the GI50 (OVCAR-3)?
A: > 100 µM (inactive)

Q: What about the GI50 (EKVX) of the same molecule?
A: > 100 µM (inactive)

Q: And the GI50 (OVCAR-8)?
A: > 100 µM (inactive)

Q: What about the GI50 (SK-OV-3) of the same molecule?
A: > 100 µM (inactive)

Q: What about the GI50 (M14) of the same molecule?
A: 77.1 µM (inactive)

Q: What about the GI50 (Malme-3M) of the same molecule?
A: 25.5 µM (inactive)

Q: And the GI50 (IGROV-1)?
A: > 100 µM (inactive)

Q: What about the GI50 (NCI/ADR-RES) of the same molecule?
A: > 100 µM (inactive)

Q: And the GI50 (HOP-92)?
A: 62.8 µM (inactive)

Q: And the GI50 (SK-MEL-5)?
A: > 100 µM (inactive)

Q: What about the GI50 (UO-31) of the same molecule?
A: > 100 µM (inactive)

Q: Which results are given for `NC1CC(=O)c2cscc21` (configuration not stated)?
A: GI50 (UACC-257): 93.5 µM (inactive); GI50 (SW-620): 17.6 µM (inactive); GI50 (CAKI-1): 15.9 µM (inactive); GI50 (NCI-H460): > 100 µM (inactive); GI50 (SNB-75): > 100 µM (inactive); GI50 (PC-3): 52.7 µM (inactive); GI50 (KM12): 18.4 µM (inactive); GI50 (SF-295): > 100 µM (inactive); GI50 (A549): 14.1 µM (inactive); GI50 (786-0): 15.1 µM (inactive); GI50 (OVCAR-4): > 100 µM (inactive); GI50 (COLO 205): 20.6 µM (inactive); GI50 (HCT-15): 25.4 µM; GI50 (SK-MEL-28): 37.3 µM (inactive); GI50 (MDA-N): > 100 µM (inactive); GI50 (LOX IMVI): 31.8 µM (inactive); GI50 (SN12C): 27.6 µM (inactive); GI50 (CCRF-CEM): 16.3 µM (inactive); GI50 (SF-539): 37 µM (inactive); GI50 (SK-MEL-2): > 100 µM (inactive); GI50 (HL-60): 13.6 µM (inactive); GI50 (HT-29): > 100 µM (inactive); GI50 (MOLT-4): 20.6 µM (inactive); GI50 (T47D): 19.6 µM (inactive); GI50 (MDA-MB-231): > 100 µM (inactive); GI50 (BT-549): 58.9 µM (inactive); GI50 (K562): 42.1 µM (inactive); GI50 (RXF 393): > 100 µM (inactive); GI50 (RPMI-8226): 4.46 µM (inactive); GI50 (HOP-62): > 100 µM (inactive); GI50 (OVCAR-5): > 100 µM (inactive); GI50 (MDA-MB-435): 24.1 µM (inactive); GI50 (HCT-116): 67.5 µM (inactive); GI50 (U-251): > 100 µM (inactive); GI50 (TK-10): 19.1 µM (inactive); GI50 (NCI-H23): > 100 µM (inactive); GI50 (DU-145): 91.4 µM (inactive); GI50 (SNB-19): 53.3 µM (inactive); GI50 (OVCAR-3): 17.5 µM (inactive); GI50 (EKVX): > 100 µM (inactive); GI50 (OVCAR-8): 31 µM (inactive); GI50 (SK-OV-3): > 100 µM (inactive); GI50 (M14): 31.1 µM (inactive); GI50 (IGROV-1): > 100 µM (inactive); GI50 (NCI/ADR-RES): > 100 µM (inactive); GI50 (HOP-92): 23 µM (inactive); GI50 (SK-MEL-5): > 100 µM (inactive); GI50 (UO-31): 10.3 µM (inactive)
